Measurements published in ChEMBL document CHEMBL2040759, “Design, synthesis and anticancer activity of nitric oxide donating/chalcone hybrids” (2012).

How the values were obtained:
Type in all cases: functional
HL-60(TB) = assay: Growth inhibition of human HL-60(TB) cells assessed as cell growth at 10^-5 M after 48 hrs by SRB assay; details: HL-60, 48 h, read-out: Activity
MOLT-4 [1] = assay: Growth inhibition of human MOLT4 cells assessed as cell growth at 10^-5 M after 48 hrs by SRB assay; details: MOLT-4, 48 h, read-out: Activity
SF-539 = assay: Growth inhibition of human SF539 cells after 48 hrs by SRB assay; details: SF-539, 48 h
EKVX = assay: Growth inhibition of human EKVX cells after 48 hrs by SRB assay
PC-3 = assay: Growth inhibition of human PC3 cells after 48 hrs by SRB assay; details: PC-3, 48 h
MOLT-4 [2] = assay: Growth inhibition of human MOLT4 cells after 48 hrs by SRB assay; details: MOLT-4, 48 h
HCT-116 = assay: Growth inhibition of human HCT116 cells after 48 hrs by SRB assay; details: HCT-116, 48 h
COLO 205 = assay: Growth inhibition of human COLO205 cells after 48 hrs by SRB assay; details: COLO 205, 48 h
[3] = Growth inhibition of human NCI-ADR-RES cells after 48 hrs by SRB assay
SK-MEL-2 = assay: Growth inhibition of human SK-MEL-2 cells after 48 hrs by SRB assay; details: SK-MEL-2, 48 h
DU-145 = assay: Growth inhibition of human DU145 cells after 48 hrs by SRB assay; details: DU-145, 48 h
K562 = assay: Growth inhibition of human K562 cells after 48 hrs by SRB assay; details: K562, 48 h
A498 = assay: Growth inhibition of human A498 cells after 48 hrs by SRB assay; details: A498, 48 h
[4] = Growth inhibition of human Hs 578T cells after 48 hrs by SRB assay
CAKI-1 = assay: Growth inhibition of human Caki1 cells after 48 hrs by SRB assay; details: CAKI-1, 48 h
UACC-62 = assay: Growth inhibition of human UACC62 cells after 48 hrs by SRB assay; details: UACC-62, 48 h
T47D = assay: Growth inhibition of human T47D cells after 48 hrs by SRB assay
MDA-MB-435 = assay: Growth inhibition of human MDA-MB-435 cells after 48 hrs by SRB assay; details: MDA-MB-435, 48 h
CCRF-CEM = assay: Growth inhibition of human CCRF-CEM cells after 48 hrs by SRB assay
OVCAR-5 = assay: Growth inhibition of human OVCAR5 cells after 48 hrs by SRB assay; details: OVCAR-5, 48 h
IGROV-1 = assay: Growth inhibition of human IGROV1 cells after 48 hrs by SRB assay; details: IGROV-1, 48 h
NCI-H522 = assay: Growth inhibition of human NCI-H522 cells after 48 hrs by SRB assay; details: NCI-H522, 48 h
HCC 2998 = assay: Growth inhibition of human HCC2998 cells after 48 hrs by SRB assay; details: HCC 2998, 48 h
OVCAR-3 = assay: Growth inhibition of human OVCAR3 cells after 48 hrs by SRB assay; details: OVCAR-3, 48 h
NCI-H23 = assay: Growth inhibition of human NCI-H23 cells after 48 hrs by SRB assay; details: NCI-H23, 48 h
M14 = assay: Growth inhibition of human M14 cells after 48 hrs by SRB assay; details: M14, 48 h
UO-31 = assay: Growth inhibition of human UO31 cells after 48 hrs by SRB assay; details: UO-31, 48 h
MDA-MB-468 = assay: Growth inhibition of human MDA-MB-468 cells after 48 hrs by SRB assay; details: MDA-MB-468, 48 h
A549 = assay: Growth inhibition of human A549/ATCC cells after 48 hrs by SRB assay; details: A549, 48 h
SK-MEL-5 = assay: Growth inhibition of human SK-MEL-5 cells after 48 hrs by SRB assay; details: SK-MEL-5, 48 h
OVCAR-8 = assay: Growth inhibition of human OVCAR8 cells after 48 hrs by SRB assay; details: OVCAR-8, 48 h
HOP-62 = assay: Growth inhibition of human HOP62 cells after 48 hrs by SRB assay; details: HOP-62, 48 h
SNB-75 = assay: Growth inhibition of human SNB75 cells after 48 hrs by SRB assay; details: SNB-75, 48 h
[5] = read-out: LC50 (the source's name)

`O=C(CO[N+](=O)[O-])Nc1ccc(C(=O)/C=C/c2ccc3c(c2)OCO3)cc1` showed a growth at 10 µM (HL-60(TB)) of 73.7% and a growth at 10 µM (MOLT-4 [1]) of 99.7%.

In the case of `O=C(CO[N+](=O)[O-])Nc1ccc(C(=O)/C=C/c2ccc(Cl)cc2)cc1`, the GI50 (SF-539) is reported as 2.52 µM, the TGI (SF-539) is reported as 8.82 µM and the CC50 (SF-539; [5]) is reported as 42.9 µM. The GI50 (EKVX) was 15 µM, the TGI (EKVX) was 74.6 µM and the CC50 (EKVX; [5]) was > 100 µM. For the same molecule, the GI50 (PC-3) was 2.74 µM, the TGI (PC-3) was 14.8 µM and the CC50 (PC-3; [5]) was 72.9 µM. For the same molecule, the GI50 (MOLT-4 [2]) was 4.68 µM, the TGI (MOLT-4 [2]) was 69.4 µM and the CC50 (MOLT-4 [2]; [5]) was > 100 µM. It also gave a GI50 (HCT-116) of 0.3 µM, a TGI (HCT-116) of 1.09 µM and a CC50 (HCT-116; [5]) of 3.55 µM. For the same molecule, the GI50 (COLO 205) was 2.57 µM, the TGI (COLO 205) was 6.09 µM and the CC50 (COLO 205; [5]) was 21.1 µM. The GI50 [3] was 3.87 µM, the TGI [3] was > 100 µM and the CC50 [3, 5] was > 100 µM. The GI50 (SK-MEL-2) was 9.69 µM, the TGI (SK-MEL-2) was 23.3 µM and the CC50 (SK-MEL-2; [5]) was 54.7 µM. It also gave a GI50 (DU-145) of 3.41 µM, a TGI (DU-145) of 13.5 µM and a CC50 (DU-145; [5]) of 36.7 µM. The GI50 (K562) was 2.6 µM, the TGI (K562) was > 100 µM and the CC50 (K562; [5]) was > 100 µM. For the same molecule, the GI50 (A498) was 15.4 µM, the TGI (A498) was 54.9 µM and the CC50 (A498; [5]) was > 100 µM. The GI50 [4] was 2.85 µM, the TGI [4] was 14.2 µM and the CC50 [4, 5] was > 100 µM. The GI50 (CAKI-1) was 11.8 µM, the TGI (CAKI-1) was 54.5 µM and the CC50 (CAKI-1; [5]) was > 100 µM. For the same molecule, the GI50 (UACC-62) was 2.76 µM, the TGI (UACC-62) was 11 µM and the CC50 (UACC-62; [5]) was 51.3 µM. The GI50 (T47D) was 3.26 µM, the TGI (T47D) was 14.9 µM and the CC50 (T47D; [5]) was 58.3 µM. It also gave a GI50 (MDA-MB-435) of 2.96 µM, a TGI (MDA-MB-435) of 11.2 µM and a CC50 (MDA-MB-435; [5]) of 59 µM. The GI50 (CCRF-CEM) was 2.73 µM, the TGI (CCRF-CEM) was 16.5 µM and the CC50 (CCRF-CEM; [5]) was > 100 µM. The GI50 (OVCAR-5) was 14.8 µM, the TGI (OVCAR-5) was 36 µM and the CC50 (OVCAR-5; [5]) was 87.8 µM. The GI50 (IGROV-1) was 13.4 µM, the TGI (IGROV-1) was 30 µM and the CC50 (IGROV-1; [5]) was 67.4 µM. For the same molecule, the GI50 (NCI-H522) was 2.31 µM, the TGI (NCI-H522) was 8.37 µM and the CC50 (NCI-H522; [5]) was 32.8 µM. It also gave a GI50 (HCC 2998) of 1.75 µM, a TGI (HCC 2998) of 3.64 µM and a CC50 (HCC 2998; [5]) of 7.57 µM. It also gave a GI50 (OVCAR-3) of 2.22 µM, a TGI (OVCAR-3) of 6.55 µM and a CC50 (OVCAR-3; [5]) of 23.9 µM. It also gave a GI50 (NCI-H23) of 4.55 µM, a TGI (NCI-H23) of 22.1 µM and a CC50 (NCI-H23; [5]) of 81.1 µM. The GI50 (M14) was 2.05 µM, the TGI (M14) was 4.96 µM and the CC50 (M14; [5]) was 17.9 µM. For the same molecule, the GI50 (UO-31) was 1.52 µM, the TGI (UO-31) was 12.1 µM and the CC50 (UO-31; [5]) was 38.5 µM. For the same molecule, the GI50 (MDA-MB-468) was 2.06 µM, the TGI (MDA-MB-468) was 5.07 µM and the CC50 (MDA-MB-468; [5]) was 17.1 µM. It also gave a GI50 (A549) of 5.71 µM, a TGI (A549) of 20.6 µM and a CC50 (A549; [5]) of 57.9 µM. The GI50 (SK-MEL-5) was 4.23 µM, the TGI (SK-MEL-5) was 15.4 µM and the CC50 (SK-MEL-5; [5]) was 39.8 µM. It also gave a GI50 (OVCAR-8) of 3.24 µM, a TGI (OVCAR-8) of 14 µM and a CC50 (OVCAR-8; [5]) of 63 µM. The GI50 (HOP-62) was 3.11 µM, the TGI (HOP-62) was 9.73 µM and the CC50 (HOP-62; [5]) was 34.6 µM. For the same molecule, the GI50 (SNB-75) was 3.19 µM, the TGI (SNB-75) was 17.6 µM and the CC50 (SNB-75; [5]) was 47.6 µM.
